Data taken from patent US20230263808A1 (UNIVERSITY OF FLORIDA RESEARCH FOUNDATION, INCORPORATED, priority 2020, published 2023).

Target: T1, androgen receptor (AR) (Homo sapiens, UniProt P10275)
T1 construct: expressed in transfected cells; host or cells: 293T
T1 sequence (P10275 1-920): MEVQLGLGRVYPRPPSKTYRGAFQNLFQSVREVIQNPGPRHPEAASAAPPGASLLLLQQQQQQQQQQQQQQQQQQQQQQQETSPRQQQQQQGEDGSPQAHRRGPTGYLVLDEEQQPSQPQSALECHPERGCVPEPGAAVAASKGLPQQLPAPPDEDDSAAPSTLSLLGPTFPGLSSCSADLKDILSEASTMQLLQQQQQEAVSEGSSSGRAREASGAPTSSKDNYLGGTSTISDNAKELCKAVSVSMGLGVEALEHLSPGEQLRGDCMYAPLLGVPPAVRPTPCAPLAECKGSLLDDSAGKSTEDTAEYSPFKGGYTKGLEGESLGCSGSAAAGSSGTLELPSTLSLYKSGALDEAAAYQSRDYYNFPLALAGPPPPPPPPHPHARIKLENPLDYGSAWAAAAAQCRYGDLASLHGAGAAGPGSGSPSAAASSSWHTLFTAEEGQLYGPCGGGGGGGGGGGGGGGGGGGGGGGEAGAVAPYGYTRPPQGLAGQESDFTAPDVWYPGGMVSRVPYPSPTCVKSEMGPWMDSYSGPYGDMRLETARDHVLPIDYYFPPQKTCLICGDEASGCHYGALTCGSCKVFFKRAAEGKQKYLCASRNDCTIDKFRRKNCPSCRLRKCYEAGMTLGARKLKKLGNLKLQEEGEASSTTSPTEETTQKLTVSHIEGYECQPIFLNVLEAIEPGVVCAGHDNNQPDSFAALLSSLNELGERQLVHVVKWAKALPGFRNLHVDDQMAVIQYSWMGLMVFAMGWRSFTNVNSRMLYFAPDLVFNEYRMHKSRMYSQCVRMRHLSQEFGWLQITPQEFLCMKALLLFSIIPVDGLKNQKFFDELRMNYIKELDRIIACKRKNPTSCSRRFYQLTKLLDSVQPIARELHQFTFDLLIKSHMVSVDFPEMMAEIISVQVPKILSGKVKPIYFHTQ
Assay: AR-luciferase assay in 293T cells
Assay type: cell-based
Procedure: For native gene expression, C2C12 myotubes were treated compounds for 24 h. For MMTV-Luc assay, steroid-deprived 293T cells were co-transfected with a GR expression plasmid and an MMTV-driven luciferase reporter plasmid. The next day, cells were treated with compounds for 24 hrs. Each point represents the average of triplicate biological measurements for a separate compound. B) AR Luc assay development. Steroid-deprived 293T cells were transfected with AR expression plasmid and an ARR3-tk-driven luciferase reporter. The next day cells were treated with increasing doses of the indicated compounds. Data shown are mean+SD of triplicate measurements. C) AR-Luc assay identified 5 GCs with some AR activity.
For inclusion in the statistical analyses, assays were required to show high reproducibility, with a Pearson correlation >0.8 between different experiments (FIG. 2, H; FIG. 9, A). […] We also analyzed the effects of the compounds on expression of Fkbp5, Pdk4, and Klf15 mRNAs in C2C12 myotubes, and MMTV-luciferase and androgen receptor (AR) driven-luciferase activity in 293T cells. […] We also analyzed the effects of compounds on nuclear translocation of GR using a quantitative HTS approach (Htun et al., Proc. Natl. Acad. Sci. USA 93, 4845-4850, 1996). […]

CC#CC1(O)CCC2C3CCc4cc(C(=O)Nc5cccnc5C)ccc4C3C(OCc3ccc(Cl)cc3)CC21C (stereo not shown) [SR16025]
AR activity: weak AR antagonist
